From ChEMBL document CHEMBL1201862, “PubChem BioAssay data set” (2004)
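96-well plates; 48 h exposure; 5 concentrations. Endpoints by linear interpolation between flanking doses. Not reached: highest tested concentration assigned. GI50 = concentration required for 50% inhibition of growth.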 Calls of active or inactive are those of the source. Cut-off read from the data, not from the text of the source: active = GI50 up to about 1.1 µM and inactive = higher.

Key:
Assay in all cases: growth of human tumour cells (NCI), 48 h
[1] = system: HL-60
[2] = system: A498
[3] = system: SK-OV-3
[4] = system: OVCAR-4
[5] = system: HOP-92
[6] = system: SF-539
[7] = system: SR
[8] = system: DMS-273
[9] = system: IGROV-1
[10] = system: HCT-116
[11] = system: COLO 205
[12] = system: HCC 2998
[13] = system: CCRF-CEM
[14] = system: ACHN
[15] = system: Malme-3M
[16] = system: RXF 631
[17] = system: DLD-1
[18] = system: MOLT-4
[19] = system: SNB-75
[20] = system: NCI-H226
[21] = system: SNB-78
[22] = system: NCI-H23
[23] = system: NCI-H522
[24] = system: K562
[25] = system: UACC-62
[26] = system: SK-MEL-28
[27] = system: CAKI-1
[28] = system: M19-MEL
[29] = system: RPMI-8226
[30] = system: SN12C
[31] = system: M14
[32] = system: 786-0
[33] = system: NCI-H460
[34] = system: HOP-62
[35] = system: SF-268
[36] = system: LXFL 529
[37] = system: SK-MEL-2
[38] = system: SW-620
[39] = system: DMS-114
[40] = system: XF498
[41] = system: KM12
[42] = system: OVCAR-3
[43] = system: RXF 393
[44] = system: LOX IMVI
[45] = system: HCT-15
[46] = system: EKVX
[47] = system: OVCAR-5
[48] = system: HT-29
[49] = system: SF-295
[50] = system: UACC-257
[51] = system: A549
[52] = system: SNB-19
[53] = system: SK-MEL-5
[54] = system: UO-31
[55] = system: OVCAR-8
[56] = system: KM-20L2

## COc1cc([C@@H]2Oc3cc4oc(-c5ccccc5)cc(=O)c4c(O)c3O[C@H]2OC)ccc1O
[1]
  GI50: 2.85 µM (inactive)
[2]
  GI50: 14.3 µM (inactive)
[3]
  GI50: 17.8 µM (inactive)
[4]
  GI50: 14.6 µM (inactive)
[5]
  GI50: 23.6 µM (inactive)
[6]
  GI50: 15 µM (inactive)
[7]
  GI50: 4.14 µM (inactive)
[8]
  GI50: 4.03 µM (inactive)
[9]
  GI50: 22.4 µM (inactive)
[10]
  GI50: 7.16 µM (inactive)
[11]
  GI50: 20.5 µM (inactive)
[12]
  GI50: 13.2 µM (inactive)
[13]
  GI50: 3.7 µM (inactive)
[14]
  GI50: 11 µM (inactive)
[15]
  GI50: 14.3 µM (inactive)
[16]
  GI50: 17.8 µM (inactive)
[17]
  GI50: 7.69 µM (inactive)
[18]
  GI50: 4.91 µM (inactive)
[19]
  GI50: 12.4 µM (inactive)
[20]
  GI50: 19.3 µM (inactive)
[21]
  GI50: 18.2 µM (inactive)
[22]
  GI50: 10.8 µM (inactive)
[23]
  GI50: 5.97 µM (inactive)
[24]
  GI50: 5.71 µM (inactive)
[25]
  GI50: 15 µM (inactive)
[26]
  GI50: 4.69 µM (inactive)
[27]
  GI50: 19.4 µM (inactive)
[28]
  GI50: 7.4 µM (inactive)
[29]
  GI50: 5.71 µM (inactive)
[30]
  GI50: 12.1 µM (inactive)
[31]
  GI50: 11 µM (inactive)
[32]
  GI50: 8.2 µM (inactive)
[33]
  GI50: 4.48 µM (inactive)
[34]
  GI50: 13.2 µM (inactive)
[35]
  GI50: 6.03 µM (inactive)
[36]
  GI50: 11.1 µM (inactive)
[37]
  GI50: 14.8 µM (inactive)

## CC(=O)N(C(C)=O)c1c(N)n(C)c(=O)[nH]c1=O
[38]
  GI50: > 100 µM (inactive)
[39]
  GI50: > 100 µM (inactive)
[1]
  GI50: > 100 µM (inactive)
[2]
  GI50: > 100 µM (inactive)
[40]
  GI50: > 100 µM (inactive)
[41]
  GI50: > 100 µM (inactive)
[42]
  GI50: > 100 µM (inactive)
[4]
  GI50: > 100 µM (inactive)
[43]
  GI50: > 100 µM (inactive)
[44]
  GI50: > 100 µM (inactive)
[45]
  GI50: > 100 µM
[46]
  GI50: > 100 µM (inactive)
[5]
  GI50: > 100 µM (inactive)
[6]
  GI50: > 100 µM (inactive)
[8]
  GI50: > 100 µM (inactive)
[9]
  GI50: > 100 µM (inactive)
[10]
  GI50: > 100 µM (inactive)
[47]
  GI50: > 100 µM (inactive)
[11]
  GI50: > 100 µM (inactive)
[12]
  GI50: > 100 µM (inactive)
[13]
  GI50: > 100 µM (inactive)
[48]
  GI50: > 100 µM (inactive)
[14]
  GI50: > 100 µM (inactive)
[15]
  GI50: > 100 µM (inactive)
[49]
  GI50: > 100 µM (inactive)
[16]
  GI50: > 100 µM (inactive)
[50]
  GI50: > 100 µM (inactive)
[17]
  GI50: > 100 µM (inactive)
[51]
  GI50: > 100 µM (inactive)
[52]
  GI50: > 100 µM (inactive)
[18]
  GI50: > 100 µM (inactive)
[20]
  GI50: > 100 µM (inactive)
[22]
  GI50: > 100 µM (inactive)
[53]
  GI50: > 100 µM (inactive)
[54]
  GI50: > 100 µM (inactive)
[24]
  GI50: > 100 µM (inactive)
[25]
  GI50: > 100 µM (inactive)
[26]
  GI50: > 100 µM (inactive)
[27]
  GI50: > 100 µM (inactive)
[28]
  GI50: > 100 µM (inactive)
[29]
  GI50: > 100 µM (inactive)
[55]
  GI50: > 100 µM (inactive)
[30]
  GI50: > 100 µM (inactive)
[31]
  GI50: > 100 µM (inactive)
[32]
  GI50: > 100 µM (inactive)
[33]
  GI50: > 100 µM (inactive)
[35]
  GI50: > 100 µM (inactive)
[56]
  GI50: > 100 µM (inactive)
[36]
  GI50: > 100 µM (inactive)
[37]
  GI50: > 100 µM (inactive)
